Tested on: participants with SSc-RP
Test: Scleroderma Health Assessment Questionnaire (SHAQ): disability indices and visual analog scales
Assay type: in vivo, human
Procedure, shortened: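 Participants with SSc-RP completed the SHAQ at screening and each in-clinic visit. Standard and alternative disability indices (eight categories, 0–3; standard adjusts for aids/assistance) plus Raynaud's VAS on interference over the past 7 days. Reported as absolute change from baseline to end of each dosing period.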

[1] = Modified ITT, Part A, dose Cilnidipine 10 mg, Tadalafil 5 mg, or 10 mg + 5 mg
[2] = PP Population, Part A, sensitivity analysis, cilnidipine 10 mg and/or tadalafil 5 mg as labelled
[3] = Tadalafil 5 mg (N = 4), Modified ITT, Part A
[4] = Tadalafil 5 mg (N = 4), patients with diagnosis of SSc, sensitivity analysis, Modified ITT, Part A
[5] = Tadalafil 5 mg, Day 12, PP Population Part A, SSc patients
[6] = Tadalafil 5 mg, Day 12, PP Population, Part A
[7] = Tadalafil 5 mg, PP Population Part A, SSc patients

CN1CC(=O)N2[C@H](c3ccc4c(c3)OCO4)c3[nH]c4ccccc4c3C[C@@H]2C1=O [Tadalafil, tadalafil]
SHAQ alternative disability index, In Clinic Visit (Day 12), Mean [1]: 0.375 | SHAQ alternative disability index, In Clinic Visit (Day 12), Median [1]: 0.250 | SHAQ Visual Analogue Scale - Breathing Problems: Baseline, Mean [2]: 3.240 | SHAQ Visual Analogue Scale - Breathing Problems: Baseline, Median [2]: 3.100 | SHAQ Visual Analogue Scale - Breathing Problems: Change from Baseline (Day 12), Mean [2]: 0.500 | SHAQ Visual Analogue Scale - Breathing Problems: Change from Baseline (Day 12), Median [2]: 1.050 | SHAQ Visual Analogue Scale - Breathing Problems: In-Clinic Visit (Day 12), Mean [2]: 4.300 | SHAQ Visual Analogue Scale - Breathing Problems: In-Clinic Visit (Day 12), Median [2]: 4.000 | SHAQ Visual Analogue Scale - Breathing Problems: Percent Change from Baseline (Day 12), Mean [2]: −2.66% | SHAQ Visual Analogue Scale - Breathing Problems: Percent Change from Baseline (Day 12), Median [2]: 29.58% | SHAQ Visual Analogue Scale - Finger Ulcers: Baseline, Mean [2]: 1.700 | SHAQ Visual Analogue Scale - Finger Ulcers: Baseline, Median [2]: 0.100 | SHAQ Visual Analogue Scale - Finger Ulcers: Change from Baseline (Day 12), Mean [2]: 0.250 | SHAQ Visual Analogue Scale - Finger Ulcers: Change from Baseline (Day 12), Median [2]: 0.000 | SHAQ Visual Analogue Scale - Finger Ulcers: In-Clinic Visit (Day 12), Mean [2]: 2.325 | SHAQ Visual Analogue Scale - Finger Ulcers: In-Clinic Visit (Day 12), Median [2]: 0.050 | SHAQ Visual Analogue Scale - Finger Ulcers: Percent Change from Baseline (Day 12), Mean [2]: 6.10% | SHAQ Visual Analogue Scale - Finger Ulcers: Percent Change from Baseline (Day 12), Median [2]: 6.10% | SHAQ Visual Analogue Scale - Intestinal Problems: Baseline, Mean [2]: 2.700 | SHAQ Visual Analogue Scale - Intestinal Problems: Baseline, Median [2]: 0.900 | SHAQ Visual Analogue Scale - Intestinal Problems: Change from Baseline (Day 12), Mean [2]: −0.125 | SHAQ Visual Analogue Scale - Intestinal Problems: Change from Baseline (Day 12), Median [2]: 0.000 | SHAQ Visual Analogue Scale - Intestinal Problems: In-Clinic Visit (Day 12), Mean [2]: 3.025 | SHAQ Visual Analogue Scale - Intestinal Problems: In-Clinic Visit (Day 12), Median [2]: 1.450 | SHAQ Visual Analogue Scale - Intestinal Problems: Percent Change from Baseline (Day 12), Mean [2]: −6.92% | SHAQ Visual Analogue Scale - Intestinal Problems: Percent Change from Baseline (Day 12), Median [2]: 0.00% | SHAQ Visual Analogue Scale - Overall Disease Severity: Baseline, Mean [2]: 4.100 | SHAQ Visual Analogue Scale - Overall Disease Severity: Baseline, Median [2]: 5.500 | SHAQ Visual Analogue Scale - Overall Disease Severity: Change from Baseline (Day 12), Mean [2]: 0.625 | SHAQ Visual Analogue Scale - Overall Disease Severity: Change from Baseline (Day 12), Median [2]: 0.700 | SHAQ Visual Analogue Scale - Overall Disease Severity: In-Clinic Visit (Day 12), Mean [2]: 5.600 | SHAQ Visual Analogue Scale - Overall Disease Severity: In-Clinic Visit (Day 12), Median [2]: 6.550 | SHAQ Visual Analogue Scale - Overall Disease Severity: Percent Change from Baseline (Day 12), Mean [2]: 32.49% | SHAQ Visual Analogue Scale - Overall Disease Severity: Percent Change from Baseline (Day 12), Median [2]: 26.79% | SHAQ Visual Analogue Scale - Raynaud's: Baseline, Mean [2]: 4.860 | SHAQ Visual Analogue Scale - Raynaud's: Baseline, Median [2]: 6.400 | SHAQ Visual Analogue Scale - Raynaud's: Change from Baseline (Day 12), Mean [2]: −0.825 | SHAQ Visual Analogue Scale - Raynaud's: Change from Baseline (Day 12), Median [2]: −0.500 | SHAQ Visual Analogue Scale - Raynaud's: In-Clinic Visit (Day 12), Mean [2]: 4.950 | SHAQ Visual Analogue Scale - Raynaud's: In-Clinic Visit (Day 12), Median [2]: 5.200 | SHAQ Visual Analogue Scale - Raynaud's: Percent Change from Baseline (Day 12), Mean [2]: −19.71% | SHAQ Visual Analogue Scale - Raynaud's: Percent Change from Baseline (Day 12), Median [2]: −20.67% | SHAQ Overall Severity: Baseline, Mean [3]: 4.975 | SHAQ Overall Severity: Baseline, Median [3]: 6.000 | SHAQ Overall Severity: Change from Baseline, Mean [3]: 0.625, | SHAQ Overall Severity: Change from Baseline, Median [3]: 0.700 | SHAQ Overall Severity: Day 12, Mean [3]: 5.600 | SHAQ Overall Severity: Day 12, Median [3]: 6.550 | SHAQ Overall Severity: Percent Change from Baseline, Mean [3]: 32.49% | SHAQ Overall Severity: Percent Change from Baseline, Median [3]: 26.790% | SHAQ Standard Disability Index: Baseline, Mean [4]: 0.594 | SHAQ Standard Disability Index: Baseline, Median [4]: 0.625 | SHAQ Standard Disability Index: Change from Baseline, Mean [4]: −0.063 | SHAQ Standard Disability Index: Change from Baseline, Median [4]: −0.063 | SHAQ Standard Disability Index: Day 12, Mean [4]: 0.531 | SHAQ Standard Disability Index: Day 12, Median [4]: 0.563 | SHAQ Standard Disability Index: Percent Change from Baseline, Mean [4]: −9.26% | SHAQ Standard Disability Index: Percent Change from Baseline, Median [4]: −11.11% | SHAQ Visual Analogue Scale - Breathing Problems, Change from Baseline, Mean [5]: 0.500 | SHAQ Visual Analogue Scale - Breathing Problems, Change from Baseline, Median [5]: 1.050 | SHAQ Visual Analogue Scale - Breathing Problems, Percent Change from Baseline, Mean [5]: −2.66% | SHAQ Visual Analogue Scale - Breathing Problems, Percent Change from Baseline, Median [5]: 29.58% | SHAQ Visual Analogue Scale - Finger Ulcers, Change from Baseline, Mean [5]: 0.250 | SHAQ Visual Analogue Scale - Finger Ulcers, Change from Baseline, Median [5]: 0.000 | SHAQ Visual Analogue Scale - Finger Ulcers, Percent Change from Baseline, Mean [5]: 6.10% | SHAQ Visual Analogue Scale - Finger Ulcers, Percent Change from Baseline, Median [5]: 6.10% | SHAQ Visual Analogue Scale - Intestinal Problems, Change from Baseline, Mean [5]: −0.125 | SHAQ Visual Analogue Scale - Intestinal Problems, Change from Baseline, Median [5]: 0.000 | SHAQ Visual Analogue Scale - Intestinal Problems, Percent Change from Baseline, Mean [5]: −6.92% | SHAQ Visual Analogue Scale - Intestinal Problems, Percent Change from Baseline, Median [5]: 0.00% | SHAQ Visual Analogue Scale - Overall Disease Severity, Change from Baseline, Mean [5]: 0.625 | SHAQ Visual Analogue Scale - Overall Disease Severity, Change from Baseline, Median [5]: 0.700 | SHAQ Visual Analogue Scale - Overall Disease Severity, Percent Change from Baseline, Mean [5]: 32.49% | SHAQ Visual Analogue Scale - Overall Disease Severity, Percent Change from Baseline, Median [5]: 26.79% | SHAQ Visual Analogue Scale - Pain, Change from Baseline, Mean [5]: 1.000 | SHAQ Visual Analogue Scale - Pain, Change from Baseline, Median [5]: 0.800 | SHAQ Visual Analogue Scale - Pain, Percent Change from Baseline, Mean [5]: 31.35% | SHAQ Visual Analogue Scale - Pain, Percent Change from Baseline, Median [5]: 10.81% | SHAQ Visual Analogue Scale - Raynaud's, Change from Baseline, Mean [5]: −0.825 | SHAQ Visual Analogue Scale - Raynaud's, Change from Baseline, Median [5]: −0.500 | SHAQ Visual Analogue Scale - Raynaud's, Percent Change from Baseline, Mean [5]: −19.71% | SHAQ Visual Analogue Scale - Raynaud's, Percent Change from Baseline, Median [5]: −20.67% | SHAQ Alternative Disability Index: Change from Baseline, Mean [6]: −0.094 | SHAQ Alternative Disability Index: Change from Baseline, Median [6]: −0.125 | SHAQ Alternative Disability Index: In-Clinic Visit (Day 12), Mean [6]: 0.375 | SHAQ Alternative Disability Index: In-Clinic Visit (Day 12), Median [6]: 0.250 | SHAQ Alternative Disability Index: Percent Change from Baseline, Mean [6]: −43.70% | SHAQ Alternative Disability Index: Percent Change from Baseline, Median [6]: −20.00% | SHAQ Standard Disability Index: Change from Baseline, Mean [6]: −0.063 | SHAQ Standard Disability Index: Change from Baseline, Median [6]: −0.063 | SHAQ Standard Disability Index: In-Clinic Visit (Day 12), Mean [6]: 0.531 | SHAQ Standard Disability Index: In-Clinic Visit (Day 12), Median [6]: 0.563 | SHAQ Standard Disability Index: Percent Change from Baseline, Mean [6]: −9.26% | SHAQ Standard Disability Index: Percent Change from Baseline, Median [6]: −11.11% | SHAQ Visual Analogue Scale - Pain: Change from Baseline, Mean [6]: 1.000 | SHAQ Visual Analogue Scale - Pain: Change from Baseline, Median [6]: 0.800 | SHAQ Visual Analogue Scale - Pain: In-Clinic Visit (Day 12), Mean [6]: 5.300 | SHAQ Visual Analogue Scale - Pain: In-Clinic Visit (Day 12), Median [6]: 5.850 | SHAQ Visual Analogue Scale - Pain: Percent Change from Baseline, Mean [6]: 31.35% | SHAQ Visual Analogue Scale - Pain: Percent Change from Baseline, Median [6]: 10.81% | SHAQ Visual Analogue Scale - Breathing Problems, In-Clinic Visit (Day 12), Mean [7]: 4.300 | SHAQ Visual Analogue Scale - Breathing Problems, In-Clinic Visit (Day 12), Median [7]: 4.000 | SHAQ Visual Analogue Scale - Finger Ulcers, In-Clinic Visit (Day 12), Mean [7]: 2.325 | SHAQ Visual Analogue Scale - Finger Ulcers, In-Clinic Visit (Day 12), Median [7]: 0.050 | SHAQ Visual Analogue Scale - Intestinal Problems, In-Clinic Visit (Day 12), Mean [7]: 3.025 | SHAQ Visual Analogue Scale - Intestinal Problems, In-Clinic Visit (Day 12), Median [7]: 1.450 | SHAQ Visual Analogue Scale - Overall Disease Severity, In-Clinic Visit (Day 12), Mean [7]: 5.600 | SHAQ Visual Analogue Scale - Overall Disease Severity, In-Clinic Visit (Day 12), Median [7]: 6.550 | SHAQ Visual Analogue Scale - Pain, In-Clinic Visit (Day 12), Mean [7]: 5.300 | SHAQ Visual Analogue Scale - Pain, In-Clinic Visit (Day 12), Median [7]: 5.850 | SHAQ Visual Analogue Scale - Raynaud's, In-Clinic Visit (Day 12), Mean [7]: 4.950 | SHAQ Visual Analogue Scale - Raynaud's, In-Clinic Visit (Day 12), Median [7]: 5.200
